Test results published in PubChem BioAssay AID2640 (Southern Research Specialized Biocontainment Screening …, 2010).
Activity calls are given as the source filed them.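 The calls were made as follows: active = wild-type drop in polymyxin IC50 at top compound dose over twice that in the PhoP-lacking mutant; inactive = the rest.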

Tested on: S. Typhimurium polymyxin resistance, OD600 growth, 24 h
Test: polymyxin susceptibility shift in S. Typhimurium, wild type vs phoP- strains, OD600 (AID 2640)
Conditions: not given

| Compound | IC50 |
| --- | --- |
| CCn1cc(C(=O)O)c(=O)c2cc(F)c(N3CCN(C(=S)NC(=O)c4ccccc4Cl)CC3)cc21 | 20 µM |
| COc1c(N2CCN(C(=S)NCc3ccccc3)C(C)C2)c(F)cc2c(=O)c(C(=O)O)cn(C3CC3)c12 (centres undefined) | 10 µM |
| O=C(Nc1ccc(Cl)cc1)N1CCCN(Cc2ccccc2F)C1 | 30 µM |
| S=C(NCc1ccc(Cl)cc1)Nc1ccncc1 | 30 µM |
| O=C1C2=C(Nc3ccccc3SC2c2ccco2)c2ccccc21 (centres undefined) | 30 µM |

Same assay, conditions: WT polymyxin IC50 at 150 uM; stronger effect = lower value

| Compound | IC50 |
| --- | --- |
| CCn1cc(C(=O)O)c(=O)c2cc(F)c(N3CCN(C(=S)NC(=O)c4ccccc4Cl)CC3)cc21 | 0.138 µM |
| Cc1ccc(Nc2cc(C)c3c(O)cccc3n2)cc1C | 2.25 µM |
| O=C(Nc1ccc(Cl)cc1)N1CCCN(Cc2ccccc2F)C1 | 0.62 µM |
| S=C(NCc1ccc(Cl)cc1)Nc1ccncc1 | 3.59 µM |
| O=C1C2=C(Nc3ccccc3SC2c2ccco2)c2ccccc21 (centres undefined) | 0.04 µM |

Same assay, conditions: phoP- polymyxin IC50 at 150 uM; stronger effect = lower value

| Compound | IC50 |
| --- | --- |
| CCn1cc(C(=O)O)c(=O)c2cc(F)c(N3CCN(C(=S)NC(=O)c4ccccc4Cl)CC3)cc21 | 0.706 µM |
| COc1c(N2CCN(C(=S)NCc3ccccc3)C(C)C2)c(F)cc2c(=O)c(C(=O)O)cn(C3CC3)c12 (centres undefined) | 0.677 µM |
| Cc1ccc(Nc2cc(C)c3c(O)cccc3n2)cc1C | 0.088 µM |
| O=C(Nc1ccc(Cl)cc1)N1CCCN(Cc2ccccc2F)C1 | 26.9 µM |
| S=C(NCc1ccc(Cl)cc1)Nc1ccncc1 | 24 µM |

Tested on: not listed separately
Test: as above
Conditions: S. Typhimurium polymyxin resistance, OD600 growth, 24 h

| Compound | outcome |
| --- | --- |
| Cc1ccc(Nc2cc(C)c3c(O)cccc3n2)cc1C | inactive |

Same assay, conditions: S. Typhimurium polymyxin resistance, OD600 growth, 24 h; measured here: polymyxin IC50 shift, WT minus phoP-; at 150 µM; stronger effect = higher value

| Compound | IC50 shift difference |
| --- | --- |
| CCn1cc(C(=O)O)c(=O)c2cc(F)c(N3CCN(C(=S)NC(=O)c4ccccc4Cl)CC3)cc21 | 10.3 |
| COc1c(N2CCN(C(=S)NCc3ccccc3)C(C)C2)c(F)cc2c(=O)c(C(=O)O)cn(C3CC3)c12 (centres undefined) | 6.39 |
| Cc1ccc(Nc2cc(C)c3c(O)cccc3n2)cc1C | 2.63 |
| O=C(Nc1ccc(Cl)cc1)N1CCCN(Cc2ccccc2F)C1 | 27.6 |
| S=C(NCc1ccc(Cl)cc1)Nc1ccncc1 | 20.4 |
| O=C1C2=C(Nc3ccccc3SC2c2ccco2)c2ccccc21 (centres undefined) | 14.6 |

Same assay, conditions: S. Typhimurium polymyxin resistance, OD600 growth, 24 h; measured here: polymyxin IC50 shift, WT strain; at 150 µM; stronger effect = higher value

| Compound | IC50 shift |
| --- | --- |
| CCn1cc(C(=O)O)c(=O)c2cc(F)c(N3CCN(C(=S)NC(=O)c4ccccc4Cl)CC3)cc21 | 9.6 |
| COc1c(N2CCN(C(=S)NCc3ccccc3)C(C)C2)c(F)cc2c(=O)c(C(=O)O)cn(C3CC3)c12 (centres undefined) | 9.16 |
| Cc1ccc(Nc2cc(C)c3c(O)cccc3n2)cc1C | 2.54 |
| O=C(Nc1ccc(Cl)cc1)N1CCCN(Cc2ccccc2F)C1 | 5.14 |
| S=C(NCc1ccc(Cl)cc1)Nc1ccncc1 | 3.93 |
| O=C1C2=C(Nc3ccccc3SC2c2ccco2)c2ccccc21 (centres undefined) | 18.2 |

Same assay, conditions: S. Typhimurium polymyxin resistance, OD600 growth, 24 h; measured here: polymyxin IC50 shift, phoP- strain; at 150 µM; stronger effect = lower value

| Compound | IC50 shift |
| --- | --- |
| CCn1cc(C(=O)O)c(=O)c2cc(F)c(N3CCN(C(=S)NC(=O)c4ccccc4Cl)CC3)cc21 | -0.66 |
| COc1c(N2CCN(C(=S)NCc3ccccc3)C(C)C2)c(F)cc2c(=O)c(C(=O)O)cn(C3CC3)c12 (centres undefined) | 2.76 |
| Cc1ccc(Nc2cc(C)c3c(O)cccc3n2)cc1C | -0.09 |
| O=C(Nc1ccc(Cl)cc1)N1CCCN(Cc2ccccc2F)C1 | -22.4 |
| S=C(NCc1ccc(Cl)cc1)Nc1ccncc1 | -16.4 |
| O=C1C2=C(Nc3ccccc3SC2c2ccco2)c2ccccc21 (centres undefined) | 3.6 |
